# Laboratory results from patent US9625448B2, “Double caged GABA compounds, bis-CNB-GABA” (The Trustees of Princeton University, priority 2014, dated 2017).
# Read-outs that look alike come from different tables or passages of the source.
# Key:
# GABAA receptors [1] = settings: cited from earlier work
# [2] = cited from earlier work
# [3] = cited from earlier work; remark: listed apart in the source
# [4] = N-position; Wieboldt et al., 1994; cited from earlier work
# GABAA receptors [5] = settings: cited from earlier work; remark: listed apart in the source
# [6] = aqueous solution; literature; cited from earlier work
# cerebellar interneurons = settings: FIG. 43A, 1 mM; see Trigo et al., 2009; cited from earlier work
# GABAA receptors [7] = assay: Miniature GABA synaptic currents in molecular layer interneurons (Trigo et al., 2009); type: cell-based
# Procedure: (§1) FIG. 26 illustrates whole-cell patch clamp recordings from dentate granule cells of rat hippocampal slices reported by Molnár & Nadler, 2000. […] Holding potential of −80 mV. (Molnár & Nadler, 2000 European Journal of Pharmacology, 391, 255-262, which is incorporated herein by reference as if fully set forth, which is incorporated herein by reference as if fully set forth). […] FIG. 27 illustrates summary of the amplitudes of the current evoked by puff of 100 μM GABA and caged compounds around the soma reported by Matsuzaki et al., 2010. The amplitude was normalized to the mean current that was induced by GABA application alone. Left panel illustrates control (n=7); +10 mM CNI-GABA (n=7). Central panel illustrates control (n=10); +0.4 mM CDNI-GABA (n=10), +1.35 mM CDNI-GABA (n=14); +10 mM CDNI-GABA (n=10). Right panel illustrates control (n=9); +1 mM MNI-Glu (n=4); +10 mM MNI-Glu (n=9). ** p<0.0001, * p<0.01 (Matsuzaki et al., 2010 Nature Chemical Biology, 6, 255-257, which is incorporated herein by reference as if fully set forth). […] Though this is a much higher concentration compared to the IC50 for CNB-GABA, CDNI requires a higher concentration when photolyzed in vitro because of its two-photon sensitivity. Because 10 mM is the concentration used for two-photon uncaging, this antagonism is still practically limiting. […] FIG. 28 illustrates the effects of NI-caged GABA and DPNI-GABA on amplitudes of miniature GABA synaptic currents as reported by Trigo et al., 2009. Referring to FIG. 28 (left), this panel illustrates recordings of miniature synaptic GABA currents in molecular layer interneurons before and during application of 1 mM DPNI-GABA. The initial inward current on diluting the cage into the bath was attributable to contaminating levels of GABA. Referring to FIG. 28 (right), the panel illustrates summary histogram from five cells of the block of spontaneous GABA currents by DPNI-GABA at different concentrations in the bath. (Trigo et al., 2009 Journal of Neuroscience Methods, 181, 159-169, which is incorporated herein by reference as if fully set forth).
# [8] = system: cerebellar molecular layer interneurons; assay: Photolysis-evoked GABAergic currents in cerebellar molecular layer interneurons; type: cell-based
# Procedure: The biological properties of our synthetic bis-CNB-GABA were evaluated using whole-cell patch recording from cerebellar molecular layer interneurons.
# FIGS. 42A-42E illustrate physiological responses to photolysis of bis-CNB-GABA. FIG. 42A illustrates a cerebellar molecular layer interneuron visualized using Alexa 488 in the patch recording electrode solution. Referring to FIG. 42A, bis-CNB-GABA (0.6 mM) was photolyzed with a 405 nm laser spot in 3 different locations (indicated by 1, 2 and 3). Still referring to FIG. 42A, laser-evoked GABAergic currents are shown on the right panel. Still referring to FIG. 42A, gray traces show individual sweeps and black traces are averages. Still referring to FIG. 42A, the gray sweep at bottom indicates the laser flash (1 ms duration, intensity 5 mW) as recorded using a photodiode. FIG. 42B illustrates bis-CNB-GABA (1.4 mM) was photolyzed with a […] LED at progressively higher flash energies (0.25-1.1 mW, 5-50 ms, 1.25-55 μJ). FIG. 42C illustrates the same experiment as shown in FIG. 42B with Responses to mono-CNB-GABA (50 μM). FIG. 42D illustrates normalized current as a function of relative LED flash energies plotted on a log-log scale. FIG. 42E illustrates laser-evoked whole-cell current recorded in the absence and presence of 3 μM gabazine, a GABA receptor antagonist. Referring to FIG. 42E, a larger flash energy was used in the presence of gabazine.
# Referring to FIG. 42A, molecular layer interneurons receive excitatory glutamatergic synapses, as well as inhibitory GABAergic synapses that show a pronounced level of spontaneous activity (gray traces). The effects of bis-CNB-GABA on these synaptic currents were tested.
# By contrast, the relationship for mono-O-CNB-GABA was close to linear (log-log slope=1.3±0.1, n=3). For these measurements, evoked currents were normalized to the maximum current observed in the same neuron. […] These power laws are consistent with a process in which each molecule of bis-CNB-GABA must cumulatively undergo two uncaging reactions in order to release an active GABAA agonist.
# To test whether bis-CNB-GABA-evoked responses resemble physiological events in their kinetics, we measured the kinetic properties of flash responses. […] This rise time is consistent with the dark reaction time (1.5 ms) for the slower cage, N-mono-CNB-GABA (Wieboldt, R.; Ramesh, D.; Carpenter, B. K; Hess, G. P. Biochemistry, 1994, 33, 1526-1533, which is incorporated herein by reference as if fully set forth). […] These rates approach those of spontaneous events and are among the fastest described for other GABA cages. […]
# GABAA receptors [9] = settings: Table 2; Matsuzaki et al. 2010; read-out: IC50 in blocking synaptic GABAA currents; cited from earlier work
# GABAA receptors [10] = assay: Current evoked by puff of 100 μM GABA and caged compounds around the soma (Matsuzaki et al., 2010); type: cell-based; settings: for IC33: calculated, q=0.33
# Procedure: as §1
compound,measurement,setting,value
CP(C)C.F[P-](F)(F)(F)(F)F.F[P-](F)(F)(F)(F)F.NC(CCC(=O)[O-])C(=O)[O-].[Na+].[Na+].[Ru+2].c1ccc(-c2ccccn2)nc1.c1ccc(-c2ccccn2)nc1 [RuBi-glutamate],IC50,"GABAA receptors [1]; Table 2 footnote 2, Fino et al., 2009, read-out: IC50 in blocking synaptic GABAA currents",300 µM
COc1ccc([N+](=O)[O-])c2c1CCN2C(=O)CCCN [MNI-GABA],effect on GABAA receptors,"GABAA receptors [1]; less than CNB-GABA, Palma-Cerda et al., 2012",antagonistic effect
O=C(O)CC[C@H](NC(=O)OCc1cc(=O)oc2cc(O)c(Br)cc12)C(=O)O [Bhc-glutamate],extinction coefficient,"[2]; at 368 nm, caged on the amine","17,470 M^−1 cm^−1"
same,extinction coefficient,"[2]; at 369 nm, caged at the carboxylate","19,550 M^−1 cm^−1"
same,product of extinction coefficient and quantum yield (φ×ε),[3]; caged on the amine,331 M⁻¹ cm⁻¹
same,quantum yield,[3]; caged on the amine,0.019
same,product of extinction coefficient and quantum yield (ε×Φ),[3]; literature values,371 M⁻¹ cm⁻¹
same,quantum yield,[3]; literature values,0.019
O=C(O)CCCNC(C(=O)O)c1ccccc1[N+](=O)[O-] (stereo not shown) [N-mono-CNB-GABA],dark reaction time,[4],1.5 ms
NCCCC(=O)N1CCc2c(OC(COP(=O)(O)O)COP(=O)(O)O)ccc([N+](=O)[O-])c21 [DPNI-GABA],decrease in response,GABAA receptors [5]; 1 mM,> 50%
same,IC50,"GABAA receptors [5]; Table 2, cerebellar interneurons, read-out: IC50 in blocking synaptic GABAA currents",500 µM
same,effect on rise times of IPSCs,"GABAA receptors [5]; Trigo et al., 2009",prolongs rise times
same,Stability,[6],Stable
same,effect on inward holding current compared with mono-O-CNB-GABA,cerebellar interneurons,"similar, though less pronounced"
same,concentration showing 33% reduction,GABAA receptors [7],230 µM
same,IC33,"GABAA receptors [7]; Table 1, calculated, q=0.33",0.23 mM
same,IC50,"GABAA receptors [7]; from data of Trigo et al., 2009",470 µM
COc1ccc(-c2ccc(=N)n(CCCC(=O)O)n2)cc1 [gabazine],effect on currents produced by photolysis of bis-CNB-GABA,[8]; 3 μM gabazine,reversibly eliminated
same,effect on responses to photolysis of bis-CNB-GABA,[8]; 3 M gabazine,eliminated these responses
"F[P-](F)(F)(F)(F)F.NCCCC(=O)[O-].[Ru+2].c1ccc(-c2ccccn2)nc1.c1ccc(-c2ccccn2)nc1.c1ccc(P(c2ccccc2)c2ccccc2)cc1 [RuBi-GABA, Ruthenium-bipyridine-triphenylphosphine-GABA]",concentrations at which antagonistic GABAA receptor activity is exhibited,"GABAA receptors [1]; Verde et al., 2008",above 20 μM
NCCCC(=O)N1CCc2c(OCC(=O)O)c([N+](=O)[O-])cc([N+](=O)[O-])c21 [CDNI-GABA],extinction coefficient,[2]; at 330 nm,"6,400 M^−1 cm^−1"
same,IC50,GABAA receptors [9],600 µM
same,Stability,[6],Stable
same,concentration showing 33% reduced response,GABAA receptors [10],220 µM
same,IC33,GABAA receptors [10]; Table 1,0.22
same,IC50,"GABAA receptors [10]; from data of Matsuzaki et al., 2010",450 µM
same,product of extinction coefficient and quantum yield (ε×Φ),[3]; literature values,"3,840 M^−1 cm^−1"
same,quantum yield,[3]; literature values,0.6
COc1ccc([N+](=O)[O-])c2c1CCN2C(=O)CC[C@H](N)C(=O)O [MNI-glu],IC50,"GABAA receptors [10]; Table 1, calculated from data of Matsuzaki et al. 2010",1100 µM
same,IC33,GABAA receptors [10]; Table 1,0.37
same,quantum yield,[3]; literature values,0.085
